Data taken from paper PMC11879280, “Antimicrobial activity of peptoids against Metallo-β-lactamase-producing Klebsiella pneumoniae, Acinetobacter baumannii, Pseudomonas aeruginosa, and other WHO priority pathogens, including Candida auris” (Journal of Applied Microbiology, 2025).
Where two headings read alike, the source gives them in different places. Square brackets hold non-standard residues; d marks the D form. Peptide text beside a SMILES is read from it. Nspe(4-Br) = C[C@H](NCC(=O)O)c1ccc(Br)cc1; Nspe = C[C@H](NCC(=O)O)c1ccccc1; Nlys = NCCCCNCC(=O)O

Columns and labels:
C. auris CBS12373 = assay: Broth microdilution MIC; format: cell-based, Candida auris
P. aeruginosa 216 = system: P. aeruginosa 216
How it was run: (§1)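 Bacteria were suspended at 5 × 10^5 CFU ml^−1 in CAMHB for antibiotics or MHB for peptidomimetics, then incubated at 37°C, 120 rpm for 16–20 h. Suspensions were log10 diluted and plated on Trypticase Soya Agar with phosphatidylcholine and Tween 80 for MBC.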

E. coli 0015 = system: E. coli 0015
How it was run: as §1

E. coli 0011 = system: E. coli 0011
How it was run: as §1

S. aureus 04 = settings: 04
How it was run: as §1

En. cloacae 005 = system: En. cloacae 005
How it was run: as §1

S. aureus 117 = system: S. aureus 117
How it was run: as §1

S. aureus 105 = system: S. aureus 105
How it was run: as §1

[1] = system: Enteroc. faecalis NCTC 13 379
How it was run: as §1

A. baumannii 005 = system: A. baumannii 005
How it was run: as §1

En. cloacae 003 = system: En. cloacae 003
How it was run: as §1

A. baumannii 007 = system: A. baumannii 007
How it was run: as §1

A. baumannii 008 = settings: 008
How it was run: as §1

E. coli 0010 = system: E. coli 0010
How it was run: as §1

K. pneumoniae JIE2709 = system: K. pneumoniae JIE2709
How it was run: as §1

E. coli 005 = system: E. coli 005
How it was run: as §1

A. baumannii 006 = system: A. baumannii 006
How it was run: as §1

P. aeruginosa AR-1270 = system: P. aeruginosa AR-1270
How it was run: as §1

A. baumannii ATCC 19 606 = system: A. baumannii ATCC 19 606
How it was run: as §1

[2] = system: horse red blood cells (RBCs); assay: Haemolysis assay; format: cell-based
Experimental: The haemolytic activity of the peptidomimetics was performed to determine mammalian cell safety. This assay used horse red blood cells (RBCs) (Sigma–Aldrich, USA) as described previously (Willcox et al. [2008], Chongsiriwatana et al. [2017], Yasir et al. [2019b]). RBCs were washed three times with PBS at 470 g for 5 min. Peptoids (0.5–250 μg ml^−1) were prepared in PBS and added to washed RBCs, then incubated at 37°C for 4 h. After incubation, cells were centrifuged at 1057 g for 10 min, and the supernatant’s OD at 540 nm was measured for lysis. PBS-only RBCs served as the negative control (no haemolysis), and Milli-Q water-treated RBCs as the positive control (100% lysis). Percent haemolysis was calculated as: (ODT − ODNC)/(ODPC − ODNC) × 100, where ODT, ODNC, and ODPC are the absorbances of the test, negative, and positive controls, respectively. This experiment was performed in triplicate.

[3] = CBS 12 373, RPMI 1640 with MOPS, 5 × 10^3 CFU ml^−1, ≥90% reduction (≥50% for fluconazole)
[4] = P. aeruginosa 216, MHB (melimine/Mel4 with 0.2% BSA, 0.01% acetic acid), mean MIC
[5] = E. coli 0015, MHB (melimine/Mel4 with 0.2% BSA, 0.01% acetic acid), mean MIC
[6] = E. coli 0011, MHB (melimine/Mel4 with 0.2% BSA, 0.01% acetic acid), mean MIC
[7] = S. aureus 105, MHB (melimine/Mel4 with 0.2% BSA, 0.01% acetic acid), mean MIC
[8] = Enteroc. faecalis NCTC 13 379, MHB (melimine/Mel4 with 0.2% BSA, 0.01% acetic acid), mean MIC
[9] = A. baumannii 005, MHB (melimine/Mel4 with 0.2% BSA, 0.01% acetic acid), mean MIC
[10] = En. cloacae 003, MHB (melimine/Mel4 with 0.2% BSA, 0.01% acetic acid), mean MIC
[11] = A. baumannii 007, MHB (melimine/Mel4 with 0.2% BSA, 0.01% acetic acid), mean MIC
[12] = E. coli 0010, MHB (melimine/Mel4 with 0.2% BSA, 0.01% acetic acid), mean MIC
[13] = K. pneumoniae JIE2709, MHB (melimine/Mel4 with 0.2% BSA, 0.01% acetic acid), mean MIC
[14] = E. coli 005, MHB (melimine/Mel4 with 0.2% BSA, 0.01% acetic acid), mean MIC
[15] = A. baumannii 006, MHB (melimine/Mel4 with 0.2% BSA, 0.01% acetic acid), mean MIC
[16] = P. aeruginosa AR-1270, MHB (melimine/Mel4 with 0.2% BSA, 0.01% acetic acid), mean MIC
[17] = A. baumannii ATCC 19 606, MHB (melimine/Mel4 with 0.2% BSA, 0.01% acetic acid), mean MIC
[18] = horse RBCs in PBS, 37°C, 4 h, value in brackets

## C[C@@H](c1ccccc1)N(CC(N)=O)C(=O)CN(C(=O)CN(CCCCN)C(=O)CN(C(=O)CN(C(=O)CN(CCCCN)C(=O)CN(C(=O)CN(C(=O)CN(CCCCN)C(=O)CN(C(=O)CN(C(=O)CNCCCCN)[C@@H](C)c1ccccc1)[C@@H](C)c1ccccc1)[C@@H](C)c1ccccc1)[C@@H](C)c1ccccc1)[C@@H](C)c1ccccc1)[C@@H](C)c1ccccc1)[C@@H](C)c1ccccc1 [TM1] (H-[Nlys][Nspe][Nspe][Nlys][Nspe][Nspe][Nlys][Nspe][Nspe][Nlys][Nspe][Nspe]-NH2)
C. auris CBS12373; [3]
  MIC against C. auris: 3.9 µg/mL
C. auris CBS12373; CBS12373
  MIC against C. auris: 2.1 µmol/L
P. aeruginosa 216; 216
  MIC of peptidomimetics: 8.6 µmol/L
P. aeruginosa 216; [4]
  MIC of peptidomimetics: 15.6 µg/mL
E. coli 0015; 0015
  MIC of peptidomimetics: 17.2 µmol/L
E. coli 0015; [5]
  MIC of peptidomimetics: 31.3 µg/mL
E. coli 0011; 0011
  MIC of peptidomimetics: 17.2 µmol/L
E. coli 0011; [6]
  MIC of peptidomimetics: 31.3 µg/mL
S. aureus 04
  MIC of peptidomimetics: 7.8 µg/mL
En. cloacae 005
  MIC of peptidomimetics: 8.6 µmol/L
En. cloacae 005; En. cloacae 005, MHB (melimine/Mel4 with 0.2% BSA, 0.01% acetic acid), mean MIC
  MIC of peptidomimetics: 15.6 µg/mL
S. aureus 117; 117
  MIC of peptidomimetics: 7.8 µg/mL
S. aureus 105; 105
  MIC of peptidomimetics: 2.1 µmol/L
S. aureus 105; [7]
  MIC of peptidomimetics: 3.9 µg/mL
[1]; [8]
  MIC of peptidomimetics: 31.3 µg/mL
[1]; Enteroc. faecalis NCTC 13 379, value in brackets
  MIC of peptidomimetics: 17.2 µmol/L
A. baumannii 005; 005
  MIC of peptidomimetics: 2.1 µmol/L
A. baumannii 005; [9]
  MIC of peptidomimetics: 3.9 µg/mL
En. cloacae 003
  MIC of peptidomimetics: 34.4 µmol/L
En. cloacae 003; [10]
  MIC of peptidomimetics: 62.5 µg/mL
A. baumannii 007; 007
  MIC of peptidomimetics: 2.1 µmol/L
A. baumannii 007; [11]
  MIC of peptidomimetics: 3.9 µg/mL
A. baumannii 008
  MIC of peptidomimetics: 7.8 µg/mL
E. coli 0010; 0010
  MIC of peptidomimetics: 8.6 µmol/L
E. coli 0010; [12]
  MIC of peptidomimetics: 15.6 µg/mL
K. pneumoniae JIE2709; [13]
  MIC of peptidomimetics: 15.6 µg/mL
K. pneumoniae JIE2709; K. pneumoniae JIE2709, value in brackets
  MIC of peptidomimetics: 8.6 µmol/L
E. coli 005; 005
  MIC of peptidomimetics: 8.6 µmol/L
E. coli 005; [14]
  MIC of peptidomimetics: 15.6 µg/mL
A. baumannii 006; 006
  MIC of peptidomimetics: 2.1 µmol/L
A. baumannii 006; [15]
  MIC of peptidomimetics: 3.9 µg/mL
P. aeruginosa AR-1270; [16]
  MIC of peptidomimetics: 31.3 µg/mL
P. aeruginosa AR-1270; P. aeruginosa AR-1270, value in brackets
  MIC of peptidomimetics: 17.2 µmol/L
A. baumannii ATCC 19 606; [17]
  MIC of peptidomimetics: 3.9 µg/mL
A. baumannii ATCC 19 606; ATCC 19
  MIC of peptidomimetics: 2.1 µmol/L
[2]; [18]
  HD10 (10% haemolytic dose): 4.4 µmol/L
  HD50 (50% haemolytic dose): 24.6 µmol/L
[2]; red cells of horse, 4 h
  HD10 (10% haemolytic dose): 8 µg/mL
  HD50 (50% haemolytic dose): 44.8 µg/mL

## C[C@@H](c1ccc(Br)cc1)N(CC(N)=O)C(=O)CN(C(=O)CN(CCCCN)C(=O)CN(C(=O)CN(C(=O)CNCCCCN)[C@@H](C)c1ccccc1)[C@@H](C)c1ccc(Br)cc1)[C@@H](C)c1ccccc1 [TM2] (H-[Nlys][Nspe][Nspe(4-Br)][Nlys][Nspe][Nspe(4-Br)]-NH2)
C. auris CBS12373; [3]
  MIC against C. auris: 3.9 µg/mL
C. auris CBS12373; CBS12373
  MIC against C. auris: 3.6 µmol/L
P. aeruginosa 216; 216
  MIC of peptidomimetics: 14.5 µmol/L
P. aeruginosa 216; [4]
  MIC of peptidomimetics: 15.6 µg/mL
E. coli 0015; 0015
  MIC of peptidomimetics: 58.1 µmol/L
E. coli 0015; [5]
  MIC of peptidomimetics: 62.5 µg/mL
E. coli 0011; 0011
  MIC of peptidomimetics: 58.1 µmol/L
E. coli 0011; [6]
  MIC of peptidomimetics: 62.5 µg/mL
S. aureus 04
  MIC of peptidomimetics: 3.9 µg/mL
En. cloacae 005
  MIC of peptidomimetics: 15.6 µg/mL
S. aureus 117; 117
  MIC of peptidomimetics: 7.2 µmol/L
S. aureus 117; S. aureus 117, MHB (melimine/Mel4 with 0.2% BSA, 0.01% acetic acid), mean MIC
  MIC of peptidomimetics: 7.8 µg/mL
S. aureus 105; 105
  MIC of peptidomimetics: 7.2 µmol/L
S. aureus 105; [7]
  MIC of peptidomimetics: 7.8 µg/mL
[1]; [8]
  MIC of peptidomimetics: 31.3 µg/mL
[1]; NCTC 13
  MIC of peptidomimetics: 29.0 µmol/L
A. baumannii 005; 005
  MIC of peptidomimetics: 7.2 µmol/L
A. baumannii 005; [9]
  MIC of peptidomimetics: 7.8 µg/mL
En. cloacae 003
  MIC of peptidomimetics: 29.0 µmol/L
En. cloacae 003; [10]
  MIC of peptidomimetics: 31.3 µg/mL
A. baumannii 007; 007
  MIC of peptidomimetics: 29.0 µmol/L
A. baumannii 007; [11]
  MIC of peptidomimetics: 31.3 µg/mL
A. baumannii 008
  MIC of peptidomimetics: 15.6 µg/mL
E. coli 0010; 0010
  MIC of peptidomimetics: 58.1 µmol/L
E. coli 0010; [12]
  MIC of peptidomimetics: 62.5 µg/mL
K. pneumoniae JIE2709; JIE2709
  MIC of peptidomimetics: 116.2 µmol/L
K. pneumoniae JIE2709; [13]
  MIC of peptidomimetics: 125 µg/mL
E. coli 005; 005
  MIC of peptidomimetics: 116.2 µmol/L
E. coli 005; [14]
  MIC of peptidomimetics: 125 µg/mL
A. baumannii 006; 006
  MIC of peptidomimetics: 7.2 µmol/L
A. baumannii 006; [15]
  MIC of peptidomimetics: 7.8 µg/mL
P. aeruginosa AR-1270; AR-1270
  MIC of peptidomimetics: 29.0 µmol/L
P. aeruginosa AR-1270; [16]
  MIC of peptidomimetics: 31.3 µg/mL
A. baumannii ATCC 19 606; [17]
  MIC of peptidomimetics: 31.3 µg/mL
A. baumannii ATCC 19 606; ATCC 19
  MIC of peptidomimetics: 29.0 µmol/L
[2]
  HD10 (10% haemolytic dose): 18.6 µmol/L
  HD50 (50% haemolytic dose): 59.5 µmol/L
[2]; red cells of horse, 4 h
  HD10 (10% haemolytic dose): 20 µg/mL
  HD50 (50% haemolytic dose): 64 µg/mL
